For 34 compounds, melting point results are on record in patent publication US7166738B2, “Non-nucleoside reverse transcriptase inhibitors” (Roche Palo Alto LLC, priority 2004, dated 2007).

Molecules are shown by their SMILES.

The melting point is the temperature of the solid-liquid transition.

Compound `Cc1cc(S(=O)(=O)NCCN2CCOCC2)ccc1NC(=O)Cc1ccc(C)c(Oc2cc(Cl)cc(C#N)c2)c1` [Compound I-118, 2-[3-(3-Chloro-5-cyano-phenoxy)-4-methyl-phenyl]-N-[2-methyl-4-(2-morpholin-4-yl-ethylsulfamoyl)-phenyl]-acetamide] showed a melting point of 177 to 181 °C.

Take `Cc1cc(S(N)(=O)=O)ccc1NC(=O)Cc1ccc(C)c(Oc2cc(Cl)cc(C#N)c2)c1F` [Compound I-74, 2-[3-(3-Chloro-5-cyano-phenoxy)-2-fluoro-4-methyl-phenyl]-N-(2-methyl-4-sulfamoyl-phenyl)-acetamide]: the melting point was in the range of 230 to 232.2 °C.

On to `Cc1cc(C#N)cc(Oc2c(Cl)ccc(CC(=O)Nc3ccc(S(N)(=O)=O)cc3C)c2F)n1` [Compound I-124, 2-[4-Chloro-3-(4-cyano-6-methyl-pyridin-2-yloxy)-2-fluoro-phenyl]-N-(2-methyl-4-sulfamoyl-phenyl)-acetamide], for which the melting point lay in the range of 230.1 to 230.7 °C.

`Cc1cc(S(N)(=O)=O)ccc1NC(=O)Cc1ccc(Cl)c(Oc2cc(C#N)cc(C#CCN(C)C)c2)c1F` [Compound I-187, 2-{4-Chloro-3-[3-cyano-5-(3-dimethylamino-prop-1-ynyl)-phenoxy]-2-fluoro-phenyl}-N-(2-methyl-4-sulfamoyl-phenyl)-acetamide] returned a melting point of 156.2 to 158.2 °C.

In turn, `Cc1cc(S(N)(=O)=O)ccc1NC(=O)Cc1ccc(C)c(Oc2cc(C#N)cc(C#N)c2)c1` [Compound I-43, 2-[3-(3,5-Dicyano-phenoxy)-4-methyl-phenyl]-N-(2-methyl-4-sulfamoyl-phenyl)-acetamide] gave a melting point of 228.6 to 230.9 °C.

As for `Cc1cc(S(N)(=O)=O)ccc1NC(=O)Cc1ccc(Cl)c(Oc2cc(Br)cc(C#N)c2)c1F` [Compound I-185, 2-[3-(3-Bromo-5-cyano-phenoxy)-4-chloro-2-fluoro-phenyl]-N-(2-methyl-4-sulfamoyl-phenyl)-acetamide], the melting point lay within 246 to 250.6 °C.

`Cc1cc(S(N)(=O)=O)ccc1NC(=O)Cc1cc(Oc2cccc(C#N)c2)c2occc2c1` [Compound I-145, 2-[7-(3-Cyano-phenoxy)-benzofuran-5-yl]-N-(2-methyl-4-sulfamoyl-phenyl)-acetamide] had a melting point of 218.9 to 220 °C.

The compound `COc1ccc(CC(=O)Nc2ccc(S(N)(=O)=O)cc2)cc1Oc1cc(C#N)cc(C(F)F)c1` [Compound I-92, 2-[3-(3-Cyano-5-difluoromethyl-phenoxy)-4-methoxy-phenyl]-N-(4-sulfamoyl-phenyl)-acetamide] came in with a melting point of 213.9 to 214.2 °C.

As for `Cc1cc(S(=O)(=O)NC(=O)[C@@H](N)C(C)C)ccc1NC(=O)Cc1ccc(Cl)c(Oc2cc(Cl)cc(C#N)c2)c1F.Cl`, the melting point fell in the range of 169 to 180.3 °C.

As to `Cc1cc(S(=O)(=O)NC2CCOCC2)ccc1NC(=O)Cc1ccc(C)c(Oc2cc(Cl)cc(C#N)c2)c1` [Compound I-128, 2-[3-(3-Chloro-5-cyano-phenoxy)-4-methyl-phenyl]-N-[2-methyl-4-(tetrahydro-pyran-4-ylsulfamoyl)-phenyl]-acetamide], the melting point lay within 171.7 to 172.6 °C.

`Cc1ccc(CC(=O)Nc2ccccc2Cl)cc1Oc1cc(C#N)cc(C#N)c1` [Compound I-34, N-(2-Chloro-phenyl)-2-[3-(3,5-dicyano-phenoxy)-4-methyl-phenyl]-acetamide] registered a melting point of 175.1 to 177.5 °C.

As for `Cc1cc(S(N)(=O)=O)ccc1NC(=O)Cc1ccc(C)c(Oc2cc(Cl)ccc2Br)c1` [Compound I-31, 2-[3-(2-Bromo-5-chloro-phenoxy)-4-methyl-phenyl]-N-(2-methyl-4-sulfamoyl-phenyl)-acetamide], the melting point was in the range of 200.5 to 203.5 °C.

`COc1ccc(CC(=O)Nc2ccc(S(N)(=O)=O)cc2C)cc1Oc1cc(C#N)cc(C(F)F)c1` [Compound I-93, 2-[3-(3-Cyano-5-difluoromethyl-phenoxy)-4-methoxy-phenyl]-N-(2-methyl-4-sulfamoyl-phenyl)-acetamide]: the melting point fell in the range of 175 to 177.2 °C.

Compound `CCc1ccc(CC(=O)Nc2ccccc2Cl)cc1Oc1cc(Cl)ccc1C#N` [Compound I-18, 2-[3-(5-Chloro-2-cyano-phenoxy)-4-ethyl-phenyl]-N-(2-chloro-phenyl)-acetamide] displayed a melting point of 168 to 169.9 °C.

For `CCc1ccc(CC(=O)Nc2ccc(S(N)(=O)=O)cc2)cc1Oc1cc(Cl)ccc1Cl` [Compound I-19, 2-[3-(2,5-Dichloro-phenoxy)-4-ethyl-phenyl]-N-(4-sulfamoyl-phenyl)-acetamide], the melting point is 190 to 193.4 °C.

`COc1cc(CC(=O)Nc2ccc(S(N)(=O)=O)cc2)cc(Oc2cc(C#N)ccc2Cl)c1` [Compound I-102, 2-[3-(2-Chloro-5-cyano-phenoxy)-5-methoxy-phenyl]-N-(4-sulfamoyl-phenyl)-acetamide] gave a melting point of 180.5 to 181.3 °C.

Take `COCC(=O)N(C)S(=O)(=O)c1ccc(NC(=O)Cc2ccc(Cl)c(Oc3cc(Cl)cc(C#N)c3)c2F)c(Cl)c1` [Compound I-171, 2-[4-Chloro-3-(3-chloro-5-cyano-phenoxy)-2-fluoro-phenyl]-N-{2-chloro-4-[(2-methoxy-acetyl)-methyl-sulfamoyl]-phenyl}-acetamide]: the melting point is 183.2 to 185.5 °C.

Consider `N#Cc1cc(Oc2c(F)c(CC(=O)Nc3ccc(S(N)(=O)=O)cc3)cc(Br)c2Br)cc(C(F)F)c1` [Compound I-114, 2-[4,5-Dibromo-3-(3-cyano-5-difluoromethyl-phenoxy)-2-fluoro-phenyl]-N-(4-sulfamoyl-phenyl)-acetamide], for which the melting point fell in the range of 144 to 147 °C.

As for `CCc1ccc(CC(=O)Nc2ccc(S(N)(=O)=O)cc2)cc1Oc1c(Cl)cccc1Cl` [Compound I-20, 2-[3-(2,6-Dichloro-phenoxy)-4-ethyl-phenyl]-N-(4-sulfamoyl-phenyl)-acetamide], the melting point lay in the range of 222.5 to 225 °C.

In turn, `CSCCNS(=O)(=O)c1ccc(NC(=O)Cc2ccc(C)c(Oc3cc(Cl)cc(C#N)c3)c2)c(C)c1` [Compound I-130, 2-[3-(3-Chloro-5-cyano-phenoxy)-4-methyl-phenyl]-N-[2-methyl-4-(2-methylsulfanyl-ethylsulfamoyl)-phenyl]-acetamide] yielded a melting point of 155.6 to 156.6 °C.

Consider `Cc1cc(C#N)cc(C)c1Oc1cc(CC(=O)Nc2ccc(S(N)(=O)=O)cc2)ccc1Cl` [Compound I-55, 2-[4-Chloro-3-(4-cyano-2,6-dimethyl-phenoxy)-phenyl]-N-(4-sulfamoyl-phenyl)-acetamide], for which the melting point lay in the range of 227.3 to 231.4 °C.

In the case of `Cl.N#Cc1cc(Cl)cc(Oc2c(Cl)ccc(CC(=O)Nc3ccc(S(=O)(=O)NC(=O)CCN)cc3Cl)c2F)c1`, the melting point is 199.3 to 199.6 °C.

As to `COCCC(=O)N(C)S(=O)(=O)c1ccc(NC(=O)Cc2ccc(Cl)c(Oc3cc(Cl)cc(C#N)c3)c2F)c(Cl)c1` [Compound I-172, 2-[4-Chloro-3-(3-chloro-5-cyano-phenoxy)-2-fluoro-phenyl]-N-{2-chloro-4-[(3-methoxy-propionyl)-methyl-sulfamoyl]-phenyl}-acetamide], the melting point fell in the range of 199.3 to 203 °C.

`Cc1cc(S(N)(=O)=O)ccc1NC(=O)Cc1ccc(Cl)c(Oc2cc(C#N)cc(C(C)(F)F)c2)c1F` [Compound I-96, 2-{4-Chloro-3-[3-cyano-5-(1,1-difluoro-ethyl)-phenoxy]-2-fluoro-phenyl}-N-(2-methyl-4-sulfamoyl-phenyl)-acetamide] came in with a melting point of 198.5 to 201 °C.

On to `CCc1cc(CC(=O)Nc2ccc(S(N)(=O)=O)cc2C)cc(Oc2cc(C#N)ccc2Cl)c1` [Compound I-106, 2-[3-(2-Chloro-5-cyano-phenoxy)-5-ethyl-phenyl]-N-(2-methyl-4-sulfamoyl-phenyl)-acetamide], for which the melting point is 231.6 to 233.1 °C.

As to `CCc1ccc(CC(=O)Nc2ccc(S(=O)(=O)NC)cc2)cc1Oc1cc(Cl)cc(C#N)c1` [Compound I-48, 2-[3-(3-Chloro-5-cyano-phenoxy)-4-ethyl-phenyl]-N-(4-methylsulfamoyl-phenyl)-acetamide], the melting point is 149.1 to 151.3 °C.

The compound `Cc1cc(S(=O)(=O)NC(=O)c2cccnc2)ccc1NC(=O)Cc1ccc(Cl)c(Oc2cc(Cl)cc(C#N)c2)c1F.Cl` registered a melting point of 261.8 to 263.6 °C.

For the compound `CC(C)c1ccc(CC(=O)Nc2ccc(S(N)(=O)=O)cc2)cc1Oc1cc(Cl)ccc1Br` [Compound I-26, 2-[3-(2-Bromo-5-chloro-phenoxy)-4-isopropyl-phenyl]-N-(4-sulfamoyl-phenyl)-acetamide], the melting point is 204.1 to 206.7 °C.

The compound `COc1ccc(CC(=O)Nc2ccc(S(N)(=O)=O)cc2Cl)cc1Oc1cc(C#N)ccc1Cl` [Compound I-67, 2-[3-(2-Chloro-5-cyano-phenoxy)-4-methoxy-phenyl]-N-(2-chloro-4-sulfamoyl-phenyl)-acetamide] registered a melting point of 214.6 to 216.4 °C.

In turn, `CC(C)CCC(=O)NS(=O)(=O)c1ccc(NC(=O)Cc2ccc(Cl)c(Oc3cc(Cl)cc(C#N)c3)c2F)c(Cl)c1.[Na]` displayed a melting point of 195.6 to 197 °C.

On to `Cc1ccc(CC(=O)Nc2ccc(S(N)(=O)=O)cc2Cl)cc1Oc1cc(C#N)cc(C#N)c1` [Compound I-44, N-(2-Chloro-4-sulfamoyl-phenyl)-2-[3-(3,5-dicyano-phenoxy)-4-methyl-phenyl]-acetamide], for which the melting point fell in the range of 209.9 to 211.5 °C.

`Cc1ccc(CC(=O)Nc2ccccc2Cl)cc1Oc1cc(F)cc(C#N)c1` [Compound I-12, N-(2-Chloro-phenyl)-2-[3-(3-cyano-5-fluoro-phenoxy)-4-methyl-phenyl]-acetamide] registered a melting point of 131.1 to 132.2 °C.

Regarding `Cc1cc(C(=O)CN2CCN(C)CC2)ccc1NC(=O)Cc1ccc(C)c(Oc2cc(Cl)cc(C#N)c2)c1` [Compound I-159, 2-[3-(3-Chloro-5-cyano-phenoxy)-4-methyl-phenyl]-N-{2-methyl-4-[2-(4-methyl-piperazin-1-yl)-acetyl]-phenyl}-acetamide], the melting point was in the range of 62.3 to 64.1 °C.

The compound `COc1ccc(CC(=O)Nc2ccc(S(N)(=O)=O)cc2C)cc1Oc1cc(C#N)ccc1Cl` [Compound I-66, 2-[3-(2-Chloro-5-cyano-phenoxy)-4-methoxy-phenyl]-N-(2-methyl-4-sulfamoyl-phenyl)-acetamide] showed a melting point of 232.9 to 236.9 °C.
